Test systems include 786-0 renal; CCRF-CEM leukemia; KM12 colon; MDA-MB-435; NCI-H226 lung; PC-3 prostate; SF-295 CNS; SK-MEL-28 melanoma; SNB-19 CNS; HT29 colon.
What all share (test): NCI anticancer screen, dose series, 48 h

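Assay format: 96-well plates, 48-hour exposure. Here, GI50 denotes the concentration required for 50% inhibition of growth. Definition used: TGI = concentration required for complete inhibition of growth.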

With `Nc1cc(N)c2nc(-c3ccccc3)c(Oc3ccc(Cl)c(Cl)c3)nc2c1`, the GI50 in the assay on 786-0 renal is 19.4 µM; in the assay on CCRF-CEM leukemia, 2.98 µM; in the assay with KM12 colon it was 6.38 µM; in the assay on MDA-MB-435 it was 5.03 µM; with NCI-H226 lung it was 15.1 µM; in the assay with PC-3 prostate, 15.5 µM. Moreover, the GI50 in the assay on SF-295 CNS is 13.9 µM; in the assay with SK-MEL-28 melanoma it was 21.5 µM; with SNB-19 CNS it was 20.9 µM. The TGI was 41.2 µM in the assay with 786-0 renal; greater than 100 µM in the assay with CCRF-CEM leukemia; 39.8 µM with KM12 colon; 21.1 µM in the assay with MDA-MB-435; 49.5 µM with NCI-H226 lung; greater than 100 µM in the assay on PC-3 prostate. Also, the TGI in the assay on SF-295 CNS was 31 µM; with SK-MEL-28 melanoma, 64.2 µM; in the assay with SNB-19 CNS, 52.5 µM.
With `COc1ccc(CNC(=O)c2c(C)n([O-])c3cc(F)c(F)cc3[n+]2=O)cc1`, the GI50 was 16.9 µM in the assay on 786-0 renal; 3.2 µM in the assay on CCRF-CEM leukemia; 3.91 µM in the assay on HT29 colon; 15.7 µM with KM12 colon; 16.5 µM in the assay on NCI-H226 lung; 11.7 µM in the assay on PC-3 prostate. The GI50 in the assay with SK-MEL-28 melanoma is 11.5 µM; in the assay with SNB-19 CNS it was 13.1 µM. The TGI with 786-0 renal is 30.6 µM; in the assay on CCRF-CEM leukemia, 12.4 µM; in the assay on HT29 colon, 16 µM; in the assay with KM12 colon, 35.5 µM; in the assay on NCI-H226 lung, 41 µM; in the assay on PC-3 prostate it was 23.9 µM. The TGI was found to be 23.6 µM in the assay on SK-MEL-28 melanoma and 25.8 µM in the assay on SNB-19 CNS.
Take `COc1ccc2c(c1)NC(=O)CN2c1nc(C)nc2ccccc12`: the GI50 is 0.00346 µM with 786-0 renal; 0.000551 µM in the assay with CCRF-CEM leukemia; 0.000307 µM with HT29 colon; 0.000353 µM with KM12 colon; 0.000208 µM in the assay on MDA-MB-435; 0.000636 µM in the assay on PC-3 prostate. Moreover, the results for the GI50 in the assay with SF-295 CNS and in the assay with SNB-19 CNS were 0.000318 µM and 0.000655 µM, respectively. Also, the TGI with 786-0 renal is greater than 100 µM; in the assay on CCRF-CEM leukemia, greater than 100 µM; in the assay on KM12 colon, greater than 100 µM; in the assay with MDA-MB-435 it was 0.000484 µM; in the assay on NCI-H226 lung, greater than 100 µM; in the assay with PC-3 prostate it was greater than 100 µM. The molecule further registered a TGI in the assay on SNB-19 CNS greater than 100 µM.
As to `O=S1(=O)C=C(c2ccccc2)C(c2ccccc2)=C1`, the GI50 was 1.49 µM with 786-0 renal; 3 µM in the assay on CCRF-CEM leukemia; 1.63 µM in the assay on KM12 colon; 1.41 µM in the assay on MDA-MB-435; 1.68 µM in the assay on NCI-H226 lung; 1.79 µM with PC-3 prostate. The GI50 was 2.06 µM in the assay with SF-295 CNS, 1.77 µM in the assay on SK-MEL-28 melanoma and 1.98 µM in the assay with SNB-19 CNS. In addition, the TGI in the assay on 786-0 renal worked out at 2.82 µM; with CCRF-CEM leukemia it was 7.6 µM; in the assay on KM12 colon it was 3.2 µM; with MDA-MB-435 it was 3.33 µM; in the assay with NCI-H226 lung, 3.34 µM; in the assay on PC-3 prostate, 4.52 µM. Besides, the TGI in the assay with SF-295 CNS is 6.3 µM; in the assay on SK-MEL-28 melanoma, 3.18 µM; in the assay with SNB-19 CNS it was 4.63 µM.
As to `CN(C)c1ccc(/C=N/NC(=O)c2cnc3ccccc3c2)cc1`, the TGI is greater than 100 µM in the assay with 786-0 renal; greater than 100 µM with KM12 colon; 34.5 µM in the assay with MDA-MB-435; greater than 100 µM with NCI-H226 lung; greater than 100 µM in the assay on PC-3 prostate; greater than 100 µM in the assay with SF-295 CNS. Moreover, the TGI in the assay on SK-MEL-28 melanoma and in the assay with SNB-19 CNS was greater than 100 µM throughout.
For the molecule `CCCCCCCCCCCCCCCC(N)c1ccccc1` (centres undefined), the GI50 in the assay on 786-0 renal was 1.68 µM; with CCRF-CEM leukemia, 1.98 µM; with HT29 colon, 1.66 µM; with KM12 colon, 1.77 µM; with MDA-MB-435, 1.61 µM; in the assay on NCI-H226 lung, 1.91 µM. In addition, the figures for the GI50 with PC-3 prostate, in the assay with SF-295 CNS and with SK-MEL-28 melanoma were 1.67 µM, 1.73 µM and 1.8 µM, respectively. The TGI in the assay with 786-0 renal was found to be 3.27 µM; with CCRF-CEM leukemia it was 4.33 µM; in the assay with HT29 colon it was 3.32 µM; in the assay on KM12 colon, 3.29 µM; in the assay with MDA-MB-435, 3.04 µM; with NCI-H226 lung, 3.69 µM. Further, the figures for the TGI with PC-3 prostate, with SF-295 CNS and in the assay on SK-MEL-28 melanoma were 3.26 µM, 3.35 µM and 3.48 µM, respectively.
Turning to `COc1ccc(OC)c(/C=C/C(=O)c2ccc3cc(OC)ccc3c2)c1`, the GI50 was greater than 11.7 µM with 786-0 renal; 3.02 µM in the assay on KM12 colon; 0.641 µM in the assay with MDA-MB-435; greater than 50 µM with NCI-H226 lung; 6.71 µM in the assay on PC-3 prostate; 1.5 µM with SF-295 CNS. Moreover, the GI50 in the assay with SK-MEL-28 melanoma is 3.74 µM. The TGI in the assay on 786-0 renal is greater than 50 µM; in the assay on KM12 colon, 11.2 µM; with MDA-MB-435, 1.88 µM; with NCI-H226 lung, greater than 50 µM; in the assay with PC-3 prostate, greater than 50 µM; in the assay with SF-295 CNS, 12.2 µM. Moreover, the TGI in the assay on SK-MEL-28 melanoma was greater than 50 µM; in the assay with SNB-19 CNS it was greater than 17.2 µM.
Turning to `O=C1CC2OCC=C3CN4CCC56c7ccccc7N1C5C2C3CC46` (centres undefined) (tested in a mixture with another compound), the GI50 in the assay with 786-0 renal, with HT29 colon, in the assay on KM12 colon, in the assay on MDA-MB-435, in the assay with NCI-H226 lung and in the assay on PC-3 prostate was greater than 50 µg/mL throughout. The GI50 in the assay with SF-295 CNS, with SK-MEL-28 melanoma and in the assay with SNB-19 CNS was greater than 50 µg/mL each time. The TGI in the assay on 786-0 renal, in the assay on HT29 colon, with KM12 colon, with MDA-MB-435, in the assay with NCI-H226 lung and in the assay with PC-3 prostate was greater than 50 µg/mL throughout. The TGI in the assay on SF-295 CNS, in the assay on SK-MEL-28 melanoma and in the assay on SNB-19 CNS was greater than 50 µg/mL throughout.
Take `CC1(C)N=C(N)N=C(N)N1c1ccc(CCC(=O)Nc2cccc(S(=O)(=O)F)c2)cc1`: the GI50 in the assay on 786-0 renal was 3.89 µM; in the assay on HT29 colon, 5.62 µM; in the assay on KM12 colon, 10.6 µM; in the assay on MDA-MB-435 it was 4.9 µM; with NCI-H226 lung it was greater than 100 µM; in the assay on PC-3 prostate it was 0.597 µM. Further, the values for the GI50 in the assay on SF-295 CNS, in the assay with SK-MEL-28 melanoma and with SNB-19 CNS were 7.75 µM, 81.1 µM and 7.37 µM, respectively. The TGI in the assay on 786-0 renal, in the assay with HT29 colon, in the assay on KM12 colon, in the assay on MDA-MB-435, with NCI-H226 lung and in the assay on PC-3 prostate was greater than 100 µM each time. Moreover, the TGI in the assay with SF-295 CNS, in the assay on SK-MEL-28 melanoma and with SNB-19 CNS was greater than 100 µM in each case.

(Values after PubChem BioAssay (NCI).)
